In brackets after ≈: the same amount, converted by molar mass. Like-named read-outs stand apart in the source and are kept apart here.
Columns and labels:
influenza virus H1N1 = assay: organism not typed; assay type: cell-based; details: for MIC: read-out: MIC, H1N1
MDCK cells [1] = details: dog
MDCK cells [2] = assay: MTT cell survival of MDCK cells treated with sample alone (D group, pharmacotoxicity)
[3] = 6.25 μg/ml, compound and H1N1 at the same time, MDCK (Table 10)
[4] = 10 μg/ml, compound and H1N1 0.01 MOI at the same time, MDCK, 48 hrs (Table 9)
[5] = 25 μg/ml, compound and H1N1 at the same time, MDCK (Table 10)
[6] = 50 μg/ml, compound and H1N1 0.01 MOI at the same time, MDCK, 48 hrs (Table 9)
[7] = 50 μg/ml, compound and H1N1 at the same time, MDCK (Table 10)
[8] = 75 μg/ml, compound and H1N1 at the same time, MDCK (Table 10)
[9] = 100 μg/ml, compound and H1N1 at the same time, MDCK (Table 10)
[10] = 12.5 μg/ml, compound and H1N1 at the same time, MDCK (Table 10)
[11] = influenza virus H1N1, MDCK cells, MTT

Structure (SMILES)	cell survival ratio, D + V (influenza virus H1N1; [3])	cell survival ratio, D + V (influenza virus H1N1; [4])	cell survival ratio, D + V (influenza virus H1N1; [5])	cell survival ratio, D + V (influenza virus H1N1; [6])	cell survival ratio, D + V (influenza virus H1N1; [7])	cell survival ratio, D + V (influenza virus H1N1; [8])	cell survival ratio, D + V (influenza virus H1N1; [9])	MIC (influenza virus H1N1)	pharmaceutical toxicity / cytotoxicity (MDCK cells [1])	cell survival ratio, D (MDCK cells [2]; 12.5 μg/ml)	cell survival ratio, D + V (influenza virus H1N1; [10])	MIC, H1N1 (influenza virus H1N1; [11])	MIC (influenza virus H1N1; [11])	cell survival ratio, D (MDCK cells [2]; 6.25 μg/ml)
COc1cc2c(c(OC)c1OC)-c1c(cc3c(c1OC)OCO3)C[C@H](C)[C@@](C)(O)[C@H]2OC(=O)c1ccccc1 (atropisomer, axis not shown) [Benzoylgomisin P]	++ (>50% but ≦75%)	+++ (>75% but ≦100%)	++++ (>100%)	++++ (>100%)	++++ (>100%)	++++ (>100%)	++++ (>100%)	12.5 µg/mL (≈ 23.3 µM)	more than 100 μg/ml	++++ (key: +/−: cell survival ratio ≦25%; +: >25% but ≦50%; ++: >50% but ≦75%; +++: >75% but ≦100%; ++++: >100%)	–	–	–	–
C/C=C(\C)C(=O)O[C@H]1c2cc(OC)c(OC)c(OC)c2-c2c(cc3c(c2OC)OCO3)C[C@H](C)[C@@]1(C)O (atropisomer, axis not shown) [Tigloylgomisin P]	+/− (cell survival ratio of ≦25%)	+/− (cell survival ratio of ≦25%)	+ (>25% but ≦50%)	+++ (>75% but ≦100%)	++++ (>100%)	++++ (>100%)	++++ (>100%)	–	more than 100 μg/ml	–	+/− (cell survival ratio of ≦25%)	50.0 µg/mL (≈ 97.2 µM)	50 µg/mL (≈ 97.2 µM)	–
COc1cc([C@@H]2c3cc(OC)c(O)cc3C(=O)[C@H](C)[C@H]2C)ccc1O [Epiwulignan A1]	+ (>25% but ≦50%)	+ (>25% but ≦50%)	+++ (>75% but ≦100%)	++++ (>100%)	++++ (>100%)	++++ (>100%)	++++ (>100%)	–	more than 100 μg/ml	++++ (key: +/−: cell survival ratio ≦25%; +: >25% but ≦50%; ++: >50% but ≦75%; +++: >75% but ≦100%; ++++: >100%)	–	25.0 µg/mL (≈ 73 µM)	25 µg/mL (≈ 73 µM)	–
NC(=O)c1ncn([C@@H]2O[C@H](CO)[C@@H](O)[C@H]2O)n1 [Ribavirin, ribavirin, reference compound]	–	–	–	–	–	–	–	3.12 µg/mL (≈ 12.8 µM)	–	–	–	–	–	–
COc1cc2c(cc1O)C(=O)[C@@H](C)[C@@H](C)[C@@H]2c1ccc(OC)c(OC)c1 [Schisandrone]	+ (>25% but ≦50%)	++ (>50% but ≦75%)	++++ (>100%)	++++ (>100%)	++++ (>100%)	++++ (>100%)	+/− (cell survival ratio of ≦25%)	–	100 µg/mL	–	++++ (>100%)	–	12.5 µg/mL (≈ 35.1 µM)	++++ (key: +/−: cell survival ratio ≦25%; +: >25% but ≦50%; ++: >50% but ≦75%; +++: >75% but ≦100%; ++++: >100%)
COc1cc([C@@H]2c3cc(OC)c(O)cc3C(=O)[C@@H](C)[C@H]2C)ccc1O [Wulignan A1]	++ (>50% but ≦75%)	++ (>50% but ≦75%)	++++ (>100%)	++++ (>100%)	++++ (>100%)	++++ (>100%)	++++ (>100%)	12.5 µg/mL (≈ 36.5 µM)	more than 100 μg/ml	++++ (key: +/−: cell survival ratio ≦25%; +: >25% but ≦50%; ++: >50% but ≦75%; +++: >75% but ≦100%; ++++: >100%)	+++ (>75% but ≦100%)	–	–	–

Reference: US8414938B2, “Schisandrae fructus extracts for inhibition or prevention of H1N1 influenza virus infection and its application thereof” (National Defense Medical Center, priority 2011, dated 2013)
